Data on eight molecules can be found in patent US12161620B2, “Devices and methods for facilitating and controlling use of a medication” (priority 2013, dated 2024).

Like-named read-outs stand apart in the source and are kept apart here.

The nature of data set [1]: Taste of denatonium saccharide solution before and after activated carbon treatment (Example 11). The note with it: 90 ppm in water. As to the method:
Example 11. In a lab evaluation, 90 ppm denatonium saccharide in water was prepared. To 40 mL samples were added 100 mg and […], respectively, of powdered activated carbon Ecosorb EC-947. The samples were stirred for about 2 days to equilibrate.

The conditions of data set [2]: cited from earlier work.
The conditions of data set [3]: PubChem; cited from earlier work.
The conditions of data set [4]: pungency; cited from earlier work.
The conditions of data set [5]: taste detection; cited from earlier work.
The nature of data set [6]: Taste of sucrose octaacetate solution before and after lime treatment (Example 10). The following applies: 60 ppm in water.
The conditions of data set [7]: in vivo; cited from earlier work.
For data set [8] the following is noted: cited from earlier work. This is another data set of the same source.

Regarding `CC[N+](CC)(CC(=O)Nc1c(C)cccc1C)Cc1ccccc1.O=C1[N-]S(=O)(=O)c2ccccc21` [denatonium saccharide], the “taste of untreated sample” value in data set [1] is “intensely bitter”. Moreover, in data set [1] (untreated, about 0.1 mL on the tongue), the “duration of taste after administration” value is “at least two hours”.
Turning to `CN(C)c1ccc(C(=C2C=CC(=[N+](C)C)C=C2)c2ccc(N(C)C)cc2)cc1.[Cl-]` [Gentian Violet], the “solubility in water” value in data set [2] is recorded as “soluble in water”.
Consider `O=C(/C=C/C=C/c1ccc2c(c1)OCO2)N1CCCCC1` [Piperine, piperine], for which, in data set [2], the “solubility in alcohol” value is on record as “soluble in alcohol” and the water solubility is 40 ppm. The lipophilicity (LogP) in data set [3] is reported as 3.5. Besides, the threshold of effect result in data set [4] was “about 1.35 ppm”.
As for `CCN(Cc1cccc(S(=O)(=O)O)c1)c1ccc(C(=C2C=CC(=[N+](CC)Cc3cccc(S(=O)(=O)O)c3)C=C2)c2ccccc2S(=O)(=O)[O-])cc1` [Brilliant Blue], in data set [2], the “solubility in water” value is “water-soluble”.
For `COc1cc(CNC(=O)CCCC/C=C/C(C)C)ccc1O` [Capsaicin, capsaicin], in data set [2], the “solubility in alcohol” value is on record as “soluble in alcohol” and the water solubility was around 10 ppm. Further, in data set [3], the LogP is listed as 3.6. Moreover, the threshold of effect entry in data set [4] is given as “about 0.02 ppm”.
For `CC[N+](CC)(CC(=O)Nc1c(C)cccc1C)Cc1ccccc1` [denatonium], the “level at which detectable” value in data set [5] was 0.01 ppm.
Regarding `CC(=O)OC[C@H]1O[C@@](COC(C)=O)(O[C@H]2O[C@H](COC(C)=O)[C@@H](OC(C)=O)[C@H](OC(C)=O)[C@H]2OC(C)=O)[C@@H](OC(C)=O)[C@@H]1OC(C)=O` [sucrose octaacetate], in data set [2], the “solubility in alcohol” value is reported as “very soluble in alcohols” and the water solubility is on record as 900 ppm. For the same molecule, the water solubility entry in data set [2] (listed as Sucrose octaacetate) is on record as “about 900 ppm”. Further, in data set [6], the “taste of untreated solution” value was “intensely bitter”. In addition, the LogP in data set [3] is given as −0.9. For the same molecule, in data set [7], the “dose that is not lethal” value was 5000 mg/kg. Also, the “level at which detectable” value in data set [5] is on record as 10 ppm.
As to `CC(=O)OCC(COC(C)=O)OC(C)=O` [Triacetin, triacetin], the half-life in data set [8] (pH 9) is below 24 h. For the same molecule, the “pH around which stable” value in data set [8] (stable only around this pH) was around 4.
